The results in this text go back to patent US20260159481A1, “INDOLE DERIVATIVE WITH SUBSTITUENT AND PHARMACEUTICAL USE” (MITOIMMUNE THERAPEUTICS INC., priority 2023, published 2026).

Assay type in all cases: cell-based
For assay [1], the system named is retinal epithelial cells (ARPE-19). Description: Protective effect against cell death due to RSL3 (LDH release), ARPE-19. The note with it: RSL3 0.3 μM, 24 hours. The procedure:
(§1) To confirm cell death protection effects on cardiac cells, adrenal medullary cells, renal fibroblasts, retinal epithelial cells, lung epithelial cells, renal proximal tubular epithelial cells, hippocampal neurons and fibroblasts, each type of cells were seeded at 4×10^3 to 1.2×10^4 cells/well in a 96-well plate and cultured for 18 to 24 hours. The example compounds were diluted to have the final concentration of 0.001, 0.003, 0.01, 0.3, 1, 3, and 10 μM, respectively, and then added to different wells and cultured for 15 to 20 minutes. […] To confirm the cell death protection effect of the example compounds, the degree of extracellular secretion of lactate dehydrogenase (LDH) was measured using a cytotoxicity LDH assay kit [Dojindo; CK12]. Briefly, at the end of 24-hour treatment of each type of cells with RSL3, 70 μL of the supernatant was taken from the 96-well plate where the cells were cultured and transferred to a new 96-well plate. The assay buffer included in the kit was added at 70 μL/well (equal to that of the sample) and the plate was covered with foil to block light and allowed to react for 15 to 20 minutes at room temperature. While observing a color change of the sample, 35 µL/well of a stop solution was added, an absorbance at 490 nm was measured using an iD3 spectrophotometer, and an EC50 value was calculated.

The test system of assay [2] is MLE-12 cells. Description: Inhibitory effect on mitochondrial accumulation of ferrous ions (Mito-FerroGreen) under RSL3. The note with it: 1 μM RSL3, 8 hours, compound 0.01, 0.1, 1 μM, FIG. 6. As to the method:
To confirm the inhibitory effect on the mitochondrial accumulation of ferrous ions in lung epithelial cells, MILE-12 cells were seeded at 2×10^5 cells/well in a 12-well plate and cultured for 18 to 24 hours. Example Compound 29 and Fer-1 were diluted to have the final concentration of 0.01, 0.1, and 1 μM and added to each well, and the cells were cultured for 10 minutes. Afterward, RSL3 was treated to have the final concentration of 1 μM, and the cells were cultured for 8 hours. To confirm the inhibitory effect on the mitochondrial accumulation of ferrous ions, Mito-FerroGreen (DOJINDO; M489) was used. According to the manufacturer's protocol, the Mito-FerroGreen was diluted in the culture broth to have the final concentration of 1 μM, and fluorescence staining was performed after a 30-minute reaction. The MLE-12 cells that were fluorescence-stained with Mito-FerroGreen were detached from the 12-well plate using 0.25% trypsin-EDTA and transferred to a microtube. Fluorescence (Ex/Em=505 nm/535 nm) was measured using, BD FACSLyric™, and the relative change compared to the control was calculated.

The next assay has as its system cardiac cells (H9C2). As to the kind of experiment: Protective effect against cell death due to RSL3 (LDH release), H9C2. The note with it: RSL3 0.5 μM, 24 hours. The procedure: as §1
(LDH leaks from cells whose membrane has failed.)

In assay [3] the test system is MLE-12 cells. Description: Inhibitory effect on intracellular lipid ROS (BODIPY 581/591 C11) under RSL3. The note with it: 1 μM RSL3, 2 hours, compound 0.01, 0.1, 1 μM, FIG. 1. The procedure: To confirm the protective effect against intracellular lipid ROS in lung epithelial cells, MLE-12 cells were seeded at 2×10^5 cells/well in a 12-well plate and cultured for 18 to 24 hours. Example Compound 29 and Fer-1 were diluted to have the final concentration of 0.01, 0.1, and 1 μM and added to each well, and the cells were cultured for 10 minutes. Afterward, RSL3 was treated to have the final concentration of 1 μM, and the cells were cultured for 2 hours. To confirm the intracellular inhibitory effect on lipid ROS, the lipid peroxidation sensor BODIPY™ 581/591 C11 (Invitrogen™; D3861) was used. According to the manufacturer's protocol, the BODIPY™ 581/591 C11 was diluted in the culture broth to have the final concentration of […] and treated, and fluorescence staining was performed after a 30-minute reaction. The MILE-12 cells that were fluorescence-stained with BODIPY™ 581/591 C11 were detached from the 12-well plate using 0.25% trypsin-EDTA and transferred to a microtube. Fluorescence (Ex/Em=500-650 nm/510-665 nm) was measured using BD FACSLyric™, and the relative change compared to the control was calculated.

The test system of assay [4] is MLE-12 cells. As to the kind of experiment: Inhibitory effect on mitochondrial lipid ROS (MitoPerOx) under RSL3. As to conditions: 1 μM RSL3, 2 hours, compound 0.01, 0.1, 1 μM, FIG. 2. As to the method: To confirm the protective effect against mito-lipid ROS in lung epithelial cells, MLE-12 cells were seeded at 2×10^5 cells/well in a 12-well plate and cultured for 18 to 24 hours. Example Compound 29 and Fer-1 were diluted to have the final concentration of 0.01, 0.1, and 1 μM and added to each well, and the cells were cultured for 10 minutes. Afterward, RSL3 was treated to have the final concentration of 1 M, and the cells were cultured for 2 hours. To confirm the inhibitory effect on mito-lipid ROS, the fluorescent mitochondria-targeted lipid peroxidation probe MitoPerOx (abcam; ab146820) was used. According to the manufacturer's protocol, MitoPerOx was diluted in the culture broth to have the final concentration of 1 μM and treated, and fluorescence staining was performed after a 30-minute reaction. The MLE-12 cells that were fluorescence-stained with MitoPerOx were detached from the 12-well plate using 0.25% trypsin-EDTA and transferred to a microtube. Fluorescence (Ex/Em=495 nm/520-590 nm) was measured using BD FACSLyric™, and the relative change compared to the control was calculated.

Assay [5] relates to renal fibroblasts (NRK-49F). As to the kind of experiment: Protective effect against cell death due to RSL3 (LDH release), NRK-49F. The note with it: RSL3 3 μM, 24 hours. The procedure:
as §1

Assay [6] has as its system MLE-12 cells. Description: Inhibitory effect on mito-ROS (MitoSOX) under RSL3. As to conditions: 1 μM RSL3, 2 hours, FIG. 4. The procedure:
To confirm the protective effect against mito-ROS in lung epithelial cells, MILE-12 cells were seeded at 2×10^5 cells/well in a 12-well plate and cultured for 18 to 24 hours. Example Compound 29 and Fer-1 were diluted to have the final concentration of 0.01, 0.1, 1 and 10 M and added to each well, and the cells were cultured for 10 minutes. Afterward, RSL3 was treated to have the final concentration of 1 M, and the cells were cultured for 2 hours. To confirm the inhibitory effect on mito-ROS, the mitochondrial superoxide indicator MitoSOX™ (Invitrogen™; C6827) was used. According to the manufacturer's protocol, MitoSOX was diluted in the culture broth to have the final concentration of […], and fluorescence staining was performed after a 30-minute reaction. The MLE-12 cells fluorescence-strained with MitoSOX were detached from the 12-well plate using 0.25% trypsin-EDTA and transferred to a microtube, and fluorescence (Ex/Em=˜396 nm/610 nm) was measured using BD FACSLyric™, and the relative change compared to the control (RSL3-untreated group) was calculated.

The test system of a further assay is fibroblasts (NIH/3T3). Description: Protective effect against cell death due to RSL3 (LDH release), NIH/3T3. The note with it: 24 hours. As to the method: as §1
Assay [7] relates to renal proximal tubular epithelial cells (HK2). Description: Protective effect against cell death due to RSL3 (LDH release), HK2. As to conditions: RSL3 0.3 μM, 24 hours. The procedure:
as §1

A word on the EC50: it is the concentration needed to bring the measured effect to its halfway point. Take `OCCOCCOCc1cc(NC2CCOCC2)c2[nH]c(-c3ccccc3)cc2c1` [Example 29, 2-(2-((2-phenyl-7-((tetrahydro-2H-pyran-4-yl)amino)-1H-indol-5-yl)methoxy)ethoxy)ethan-1-ol]: the EC50 in [1] (Homo sapiens) was at most 100 nM; in the assay on cardiac cells (H9C2) (Rattus norvegicus), at most 100 nM; in [5] (Rattus norvegicus), at most 100 nM; in the assay with fibroblasts (NIH/3T3) (Mus musculus, NIH3T3, RSL3 3 μM), 100 to 1000 nM; in assay [7] (Epithelial cell), at most 100 nM. Besides, the “mitochondrial ferrous ions increased by RSL3 treatment” value in the assay on MLE-12 cells [2] is “significantly reduced mitochondrial ferrous ion levels at 0.01, 0.1, and 1 M”. Also, the “intracellular lipid ROS increased by RSL3 treatment” value with MLE-12 cells [3] is “significantly decreased at 0.01, 0.1, and 1 μM”. In addition, the “mito-lipid ROS increased by RSL3 treatment” value in the assay on MLE-12 cells [4] is “significantly decreased at 1 μM”. Also, in the assay with MLE-12 cells [6], the “mito-ROS increased by RSL3 treatment” value was “significantly decreased at 0.01, 0.1, and 1 μM”.

As for `CCOC(=O)c1ccc(NC2CCCCC2)c(N)c1` [Fer-1, ferrostatin-1, reference compound], the half-maximal effective concentration (EC50) in assay [1] was at most 100 nM; with cardiac cells (H9C2) it was at most 100 nM; in [5], at most 100 nM; with fibroblasts (NIH/3T3) (RSL3 3 μM), 100 to 1000 nM; in assay [7], at most 100 nM. Also, the “mitochondrial ferrous ions increased by RSL3 treatment” value in the assay on MLE-12 cells [2] was “significantly reduced mitochondrial ferrous ion levels at 0.1 and 1 μM”. In addition, the “intracellular lipid ROS increased by RSL3 treatment” value in the assay on MLE-12 cells [3] was “significantly decreased at 0.01, 0.1, and 1 μM”. Further, the “mito-lipid ROS increased by RSL3 treatment” value in the assay with MLE-12 cells [4] was “significantly decreased at 1 μM”. In the assay with MLE-12 cells [6], the “mito-ROS increased by RSL3 treatment” value is “significantly decreased at 0.01, 0.1, and 1 μM”.
